Columns and labels:
PCSK9 = target: T1, PCSK9 (Homo sapiens, UniProt Q8NBP7); settings: single injection, clinical trial; cited from earlier work
T1 construct: host or cells: patients (endogenous circulating PCSK9)

mice fed high fat diet = test: Test for efficacy in animal model (mice fed high fat diet); format: in vivo, mice (C57BL/6)
Method: SBC-115,076, and SBC-110,034 were tested for their efficacy in male mice (C57BL/6 mice). Mice were housed as four animals per cage under climate-controlled conditions of temperature (20-24° C.), humidity (60-70%), and alternating 12 h light/dark cycles. One group was fed commercial chow diet (Prolab RMH 3000, PMI feeds, St. Louis, Mo.) to serve as a negative control, while the other four groups were fed high fat diet (TD.06414), which provides 60% of calories from fat. Water was provided ad libitum. Plasma was collected once weekly to monitor the level of LDL. After 4 weeks of feeding a high fat-diet, mice were randomly assigned to one of several groups such that the average LDL levels were equal among different groups. […] Blood samples (75 μl) were collected twice weekly after drug administration from the retro-orbital venous plexus via heparinized capillary tubes containing 2 USP units of ammonium heparin per tube (Carolina, Burlington, N.C.). Plasma were separated immediately by centrifugation (5,000×g) for 5 min at room temperature and then kept at −80° C. until assayed for lipid profile. Plasma cholesterol, LDL-C, HDL-C, and triglyceride levels are measured enzymatically. Additionally, the plasma levels of PCSK9 and chemokines/cytokines were measured for potential pleiotropic effects of PCSK9 inhibitors using ELISA and multiplex assays.

HepG2 cells = test: Uptake of Fluorescent Dil-LDL in HepG2 cells in situ; format: cell-based; settings: various concentrations (FIG. 6)
Method: The SBC compounds were validated for their ability to increase uptake of Fluorescent Dil-LDL in HepG2 cells.
We also tested the ability of the PCSK9 compounds to enhance the uptake of Fluorescent Dil-LDL in HepG2 cells. Briefly, HepG2 cells were plated and allowed to grow overnight. Compounds were added to the cells followed by the addition of Fluorescent Dil-LDL. Cells were washed extensively, and the Fluorescent Di-LDL taken up by the cells were measured using the Synergy 2 plate reader (FIG. 6).

[1] = second study, 40 mg/kg, after three weeks, P<0.01
[2] = 8 mg/kg daily s.c., after two weeks, P<0.01 (FIG. 8)

T1 sequence (Q8NBP7 153-692): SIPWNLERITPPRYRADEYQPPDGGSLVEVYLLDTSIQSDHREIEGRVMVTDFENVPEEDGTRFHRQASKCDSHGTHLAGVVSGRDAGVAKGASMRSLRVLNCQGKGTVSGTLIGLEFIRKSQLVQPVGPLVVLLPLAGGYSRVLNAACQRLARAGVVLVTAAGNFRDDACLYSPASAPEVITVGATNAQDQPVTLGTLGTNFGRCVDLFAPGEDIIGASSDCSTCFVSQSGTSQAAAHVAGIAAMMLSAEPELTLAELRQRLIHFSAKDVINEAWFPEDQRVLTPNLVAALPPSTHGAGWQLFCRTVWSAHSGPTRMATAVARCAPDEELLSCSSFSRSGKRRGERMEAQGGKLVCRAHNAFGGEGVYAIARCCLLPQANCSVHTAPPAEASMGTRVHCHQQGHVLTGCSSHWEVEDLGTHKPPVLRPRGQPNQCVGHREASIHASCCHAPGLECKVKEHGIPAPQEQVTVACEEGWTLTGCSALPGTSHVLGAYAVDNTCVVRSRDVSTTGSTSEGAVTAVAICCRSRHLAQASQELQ

## REGN727: Regeneron/Sanofi fully-human PCSK9 monoclonal antibody
PCSK9
  reduction of LDL levels: more than 60%

## CC(C)c1c(C(=O)Nc2ccccc2)c(-c2ccccc2)c(-c2ccc(F)cc2)n1CC[C@@H](O)C[C@@H](O)CC(=O)O [Atorvastatin, reference compound]
Mice fed high fat diet; [1]
  mean reduction in total cholesterol levels relative to high fat diet animal levels: 27%
  mean reduction toward return to regular diet cholesterol levels: 44%

## Cc1cc(C(=O)C2=C(O)C(=O)N(CCCN3CCOCC3)C2c2ccncc2)ccc1OCc1ccccc1 (stereo not shown) [SBC-115,076]
Mice fed high fat diet; [2]
  mean reduction in total cholesterol levels relative to high fat diet animal levels: 32%
  mean reduction toward return to regular diet cholesterol levels: 50%
Mice fed high fat diet; 8 mg/kg daily subcutaneously for two weeks
  cholesterol levels in mice fed high fat diet: lowered cholesterol levels
HepG2 cells
  uptake of Fluorescent Dil-LDL: increase in the Fluorescent Dil-LDL uptake using submicromolar concentrations
